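Results reflect a 48-hour exposure of cells in 96-well plates to compound at five concentrations. GI50 = concentration required for 50% inhibition of growth.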 The source made the active and inactive calls. No stated cut-off is given here; in the data, active = GI50 up to about 1.1 µM and inactive = higher.
Tests used:
Assay in all cases: NCI anticancer screen, dose series, 48 h
[1] = test system: HCC 2998
[2] = test system: OVCAR-4
[3] = test system: NCI-H23
[4] = test system: K562
[5] = test system: 786-0
[6] = test system: NCI-H226
[7] = test system: MCF7
[8] = test system: A549
[9] = test system: LOX IMVI
[10] = test system: HCT-15
[11] = test system: HOP-62
[12] = test system: SW-620
[13] = test system: SF-295
[14] = test system: HT-29
[15] = test system: HOP-92
[16] = test system: BT-549
[17] = test system: MDA-MB-435
[18] = test system: COLO 205
[19] = test system: SN12C
[20] = test system: SNB-19
[21] = test system: EKVX
[22] = test system: UO-31
[23] = test system: OVCAR-5
[24] = test system: NCI-H460
[25] = test system: PC-3
[26] = test system: HCT-116
[27] = test system: SK-MEL-5
[28] = test system: OVCAR-3
[29] = test system: U-251
[30] = test system: SNB-75
[31] = test system: SF-268
[32] = test system: SK-MEL-28
[33] = test system: UACC-257
[34] = test system: M14
[35] = test system: NCI/ADR-RES
[36] = test system: IGROV-1
[37] = test system: ACHN
[38] = test system: SK-MEL-2
[39] = test system: CCRF-CEM
[40] = test system: TK-10
[41] = test system: MDA-MB-231
[42] = test system: SF-539
[43] = test system: MDA-N
[44] = test system: DU-145
[45] = test system: NCI-H522
[46] = test system: Malme-3M
[47] = test system: OVCAR-8
[48] = test system: A498
[49] = test system: HL-60
[50] = test system: CAKI-1
[51] = test system: Hs-578T
[52] = test system: RPMI-8226
[53] = test system: RXF 393
[54] = test system: SK-OV-3
[55] = test system: KM12
[56] = test system: T47D
[57] = test system: UACC-62

Compound: CC(=O)O[C@@H]1C[C@@]23C[C@@]24CC[C@H](OC2OCC(O)C(O)C2O)C(C)(C)[C@@H]4CC=C3[C@]2(C)C[C@@H]3OC4(C[C@@H](C)[C@@H]3[C@@]12C)OC(O)[C@@]1(C)O[C@@H]41 (some centres not stated)
- GI50 [1]: 20.6 µM (inactive)
- GI50 [2]: 48.4 µM (inactive)
- GI50 [3]: 34 µM (inactive)
- GI50 [4]: 23.8 µM (inactive)
- GI50 [5]: 25.2 µM (inactive)
- GI50 [6]: 35.4 µM (inactive)
- GI50 [7]: 30.8 µM (inactive)
- GI50 [8]: 48.9 µM (inactive)
- GI50 [9]: 23.4 µM (inactive)
- GI50 [10]: 31.6 µM
- GI50 [11]: 27.4 µM (inactive)
- GI50 [12]: 36.5 µM (inactive)
- GI50 [13]: 25.7 µM (inactive)
- GI50 [14]: 33.2 µM (inactive)
- GI50 [15]: 54.3 µM (inactive)
- GI50 [16]: 27.9 µM (inactive)
- GI50 [17]: 32.4 µM (inactive)
- GI50 [18]: 21.3 µM (inactive)
- GI50 [19]: 31.5 µM (inactive)
- GI50 [20]: 75.2 µM (inactive)
- GI50 [21]: 33.4 µM (inactive)
- GI50 [22]: 41.8 µM (inactive)
- GI50 [23]: 47.5 µM (inactive)
- GI50 [24]: 25.3 µM (inactive)
- GI50 [25]: 22.9 µM (inactive)
- GI50 [26]: 19.4 µM (inactive)
- GI50 [27]: 19.7 µM (inactive)
- GI50 [28]: 12.1 µM (inactive)
- GI50 [29]: 30.7 µM (inactive)
- GI50 [30]: 25 µM (inactive)
- GI50 [31]: 58.7 µM (inactive)
- GI50 [32]: 41.2 µM (inactive)
- GI50 [33]: 26.9 µM (inactive)
- GI50 [34]: 47.2 µM (inactive)
- GI50 [35]: 43.9 µM (inactive)
- GI50 [36]: 36.5 µM (inactive)
- GI50 [37]: 43.5 µM (inactive)
- GI50 [38]: 19.7 µM (inactive)
- GI50 [39]: 11.7 µM (inactive)
- GI50 [40]: 36 µM (inactive)
- GI50 [41]: 21.1 µM (inactive)
- GI50 [42]: 20.8 µM (inactive)
- GI50 [43]: 30.9 µM (inactive)
- GI50 [44]: 43.2 µM (inactive)
- GI50 [45]: 23 µM (inactive)
- GI50 [46]: 33.2 µM (inactive)
- GI50 [47]: 41.7 µM (inactive)
- GI50 [48]: 32.1 µM (inactive)
- GI50 [49]: 7.73 µM (inactive)
- GI50 [50]: 46.1 µM (inactive)
- GI50 [51]: 40.4 µM (inactive)
- GI50 [52]: 19.6 µM (inactive)
- GI50 [53]: 15.9 µM (inactive)
- GI50 [54]: 30.4 µM (inactive)
- GI50 [55]: 33.7 µM (inactive)
- GI50 [56]: 20.8 µM (inactive)
- GI50 [57]: 21.7 µM (inactive)

Reference: ChEMBL document CHEMBL1201862, “PubChem BioAssay data set” (2004)
